{
  "source": "patent US20150175655A1",
  "about": "(priority 2012, published 2015)",
  "data": [
    {"biological_target": "T1, NS3 genotype 3a protease (UniProt Q81258)", "T1 construct": "Purified NS3 protease domain (amino acids 1-181) of the genotype 1b and 3a virus were generated as above; fused on or other part: N-terminal hexahistidine tag and rTEV protease cleavage site (vector p28-N6H-Tev-NS3(181)3)", "T1 sequence (Q81258 1033-1663)": "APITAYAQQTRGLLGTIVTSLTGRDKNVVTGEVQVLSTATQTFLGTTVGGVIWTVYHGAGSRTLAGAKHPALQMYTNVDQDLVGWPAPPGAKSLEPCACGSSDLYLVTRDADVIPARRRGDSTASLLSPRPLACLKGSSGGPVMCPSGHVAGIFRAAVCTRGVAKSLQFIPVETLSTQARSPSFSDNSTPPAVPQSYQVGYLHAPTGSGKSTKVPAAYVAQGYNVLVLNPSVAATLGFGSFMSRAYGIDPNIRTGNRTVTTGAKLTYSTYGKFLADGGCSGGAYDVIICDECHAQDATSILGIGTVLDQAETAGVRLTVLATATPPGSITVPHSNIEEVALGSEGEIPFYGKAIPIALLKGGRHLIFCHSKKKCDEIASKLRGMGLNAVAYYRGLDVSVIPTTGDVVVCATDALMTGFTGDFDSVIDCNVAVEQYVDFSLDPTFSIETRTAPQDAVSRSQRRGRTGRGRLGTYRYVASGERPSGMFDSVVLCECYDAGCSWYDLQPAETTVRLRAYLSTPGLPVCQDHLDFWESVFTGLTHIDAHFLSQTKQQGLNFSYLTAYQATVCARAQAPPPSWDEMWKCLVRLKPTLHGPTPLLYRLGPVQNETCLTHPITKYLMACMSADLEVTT", "assay": "Ki determination, NS3 protease genotype 3a (fluorogenic depsipeptide substrate)", "format": "biochemical, hepatitis C virus", "details": "200 pM enzyme, 20 μM NS4A peptide, 2 μM substrate, read-out: Ki 3A", "method_in_brief": "(§1)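 Refolded His-tagged NS3 protease domain (aa 1-181, genotype 3a) at 200 pM with 20 μM NS4A peptide was pre-incubated 1 h at RT with inhibitor (100 nM–5 pM, 3-fold), then 2 μM FRET depsipeptide substrate was added in HEPES/40% glycerol/10% DMSO buffer. Steady-state rates over 90-120 min (ex 340/em 490 nm) versus inhibitor concentration gave Ki.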", "units": {"Ki": "nM"}, "values": [
      {"compound": "CC[C@@H]1[C@@H]2CN(C(=O)[C@H](C(C)(C)C)NC(=O)O[C@@]3(C)C[C@@H]3CCCCC(F)(F)c3nc4ccc(OC)cc4nc3O2)[C@@H]1C(=O)N[C@]1(C(=O)NS(=O)(=O)C2(C)CC2)C[C@H]1C(F)F", "note": "[Example 64, (1aS,5S,8S,9S,10R,22aS)-5-tert-butyl-N-[(1R,2R)-2-(difluoromethyl)-1-{[(1-methylcyclopropyl)sulfonyl]carbamoyl}cyclopropyl]-9-ethyl-18,18-difluoro-14-methoxy-1a-methyl-3,6-dioxo-1,1a,3,4,5,6,9,10,18,19,20,21,22,22a-tetradecahydro-8H-7,10-methanocyclopropa[18,19][1,10,3,6]dioxadiazacyclononadecino[11,12-b]quinoxaline-8-carboxamide]", "Ki": 1.2},
      {"compound": "CC[C@@H]1[C@@H]2CN(C(=O)[C@H](C(C)(C)C)NC(=O)O[C@@H]3C[C@H]3CCCCC(F)(F)c3nc4ccc(C#N)cc4nc3O2)[C@@H]1C(=O)N[C@]1(C(=O)NS(=O)(=O)C2(C)CC2)C[C@H]1C(F)F", "note": "[Example 87, (1aR,5S,8S,9S,10R,22aR)-5-tert-butyl-14-cyano-N-[(1R,2R)-2-(difluoromethyl)-1-{[(1-methylcyclopropyl)sulfonyl]carbamoyl}cyclopropyl]-9-ethyl-18,18-difluoro-3,6-dioxo-1,1a,3,4,5,6,9,10,18,19,20,21,22,22a-tetradecahydro-8H-7,10-methanocyclopropa[18,19][1,10,3,6]dioxadiazacyclononadecino[11,12-b]quinoxaline-8-carboxamide]", "Ki": 0.05},
      {"compound": "CC[C@@H]1[C@@H]2CN(C(=O)[C@H](C(C)(C)C)NC(=O)O[C@]3(C)CCC[C@H]3CCCCCc3nc4ccc(OC)cc4nc3O2)[C@@H]1C(=O)N[C@]1(C(=O)NS(=O)(=O)C2CC2)C[C@H]1C(F)F", "note": "[Example 40, (3aR,7S,10S,11S,12R,24aR)-7-tert-butyl-N-[(1R,2R)-1-[(cyclopropylsulfonyl)carbamoyl]-2-(difluoromethyl)cyclopropyl]-11-ethyl-16-methoxy-3a-methyl-5,8-dioxo-1,2,3,3a,5,6,7,8,11,12,20,21,22,23,24,24a-hexadecahydro-10H-9,12-methanocyclopenta[18,19][1,10,3,6]dioxadiazacyclononadecino[11,12-b]quinoxaline-10-carboxamide]", "Ki": 0.18},
      {"compound": "C[C@@H]1[C@@H]2CN(C(=O)[C@H](C(C)(C)C)NC(=O)O[C@@H]3C[C@@H]4C[C@@H]4[C@H]3CCCCC(F)(F)c3nc4ccccc4nc3O2)[C@@H]1C(=O)N[C@]1(C(=O)NS(=O)(=O)C2(C)CC2)C[C@H]1C(F)F", "note": "[Example 82, (1aS,2aR,6S,9S,10S,11R,23aR,23bS)-6-tert-butyl-N-[(1R,2R)-2-(difluoromethyl)-1-{[(1-methylcyclopropyl)sulfonyl]carbamoyl}cyclopropyl]-19,19-difluoro-10-methyl-4,7-dioxo-1a,2,2a,4,5,6,7,10,11,19,20,21,22,23,23a,23b-hexadecahydro-1H,9H-8,11-methanocyclopropa[4′,5′]cyclopenta[1′,2′:18,19][1,10,3,6]dioxadiazacyclononade cino[11,12-b]quinoxaline-9-carboxamide]", "Ki": 0.04},
      {"compound": "CC[C@@H]1[C@@H]2CN(C(=O)[C@H](C(C)(C)C)NC(=O)O[C@@H]3C[C@H]3CCCCCc3nc4ccc(OC)cc4nc3O2)[C@@H]1C(=O)N[C@]1(C(=O)NS(=O)(=O)C2CC2)C[C@H]1CC", "note": "[Example 3, (1aR,5S,8S,9S,10R,22aR)-5-tert-butyl-N-{(1R,2R)-1-[(cyclopropylsulfonyl)carbamoyl]-2-ethylcyclopropyl}-9-ethyl-14-methoxy-3,6-dioxo-1,1a,3,4,5,6,9,10,18,19,20,21,22,22a-tetradecahydro-8H-7,10-methanocyclopropa[18,19][1,10,3,6]dioxadiazacyclononadecino[11,12-b]quinoxaline-8-carboxamide]", "Ki": 0.56},
      {"compound": "CC[C@@H]1[C@@H]2CN(C(=O)[C@H](C(C)(C)C)NC(=O)O[C@]3(C)CCC[C@H]3CCCCCc3nc4ccc(OC)cc4nc3O2)[C@@H]1C(=O)N[C@]1(C(=O)NS(=O)(=O)C2(C)CC2)C[C@H]1CC", "note": "[Example 56, (3aR,7S,10S,11S,12R,24aR)-7-tert-butyl-11-ethyl-N-[(1R,2R)-2-ethyl-1-{[(1-methylcyclopropyl)sulfonyl]carbamoyl}cyclopropyl]-16-methoxy-3a-methyl-5,8-dioxo-1,2,3,3a,5,6,7,8,11,12,20,21,22,23,24,24a-hexadecahydro-10H-9,12-methanocyclopenta[18,19][1,10,3,6]dioxadiazacyclononadecino[11,12-b]quinoxaline-10-carboxamide]", "Ki": 1},
      {"compound": "CC[C@@H]1[C@@H]2CN(C(=O)[C@H](C(C)(C)C)NC(=O)O[C@@H]3C[C@H]3CCCCCc3nc4ccc(OC)cc4nc3O2)[C@@H]1C(=O)N[C@]1(C(=O)NS(=O)(=O)C2CC2)C[C@H]1C(F)F", "note": "[Example 2, (1aR,5S,8S,9S,10R,22aR)-5-tert-butyl-N-[(1R,2R)-1-[(cyclopropylsulfonyl)carbamoyl]-2-(difluoromethyl)cyclopropyl]-9-ethyl-14-methoxy-3,6-dioxo-1,1a,3,4,5,6,9,10,18,19,20,21,22,22a-tetradecahydro-8H-7,10-methanocyclopropa[18,19][1,10,3,6]dioxadiazacyclononadecino[11,12-b]quinoxaline-8-carboxamide]", "Ki": 0.04}
    ]},
    {"biological_target": "T1, NS3 genotype 3a protease", "assay": "Ki determination, NS3 protease genotype 3a (fluorogenic depsipeptide substrate)", "format": "biochemical, hepatitis C virus", "details": "read-out: Ki 3A, 200 pM enzyme, 20 μM NS4A peptide, 2 μM substrate", "method_in_brief": "as §1", "units": {"Ki": "nM"}, "values": [
      {"compound": "C=C[C@@H]1C[C@]1(NC(=O)[C@@H]1[C@H](C)[C@@H]2CN1C(=O)[C@H](C(C)(C)C)NC(=O)O[C@@H]1C[C@H]1CCCCCc1nc3ccc(OC)cc3nc1O2)C(=O)NS(=O)(=O)C1CC1", "note": "[Example 48, (1aR,5S,8S,9S,10R,22aR)-5-tert-butyl-N-{(1R,2S)-1-[(cyclopropylsulfonyl)carbamoyl]-2-ethenylcyclopropyl}-14-methoxy-9-methyl-3,6-dioxo-1,1a,3,4,5,6,9,10,18,19,20,21,22,22a-tetradecahydro-8H-7,10-methanocyclopropa[18,19][1,10,3,6]dioxadiazacyclononadecino[11,12-b]quinoxaline-8-carboxamide]", "Ki": 0.09},
      {"compound": "CC[C@@H]1C[C@]1(NC(=O)[C@@H]1[C@H](C)[C@@H]2CN1C(=O)[C@H](C(C)(C)C)NC(=O)O[C@@H]1C[C@H]1CCCCCc1nc3ccc(OC)cc3nc1O2)C(=O)NS(=O)(=O)C1(C)CC1", "note": "[Example 21, (1aR,5S,8S,9S,10R,22aR)-5-tert-butyl-N-[(1R,2R)-2-ethyl-1-{[(1-methylcyclopropyl)sulfonyl]carbamoyl}cyclopropyl]-14-methoxy-9-methyl-3,6-dioxo-1,1a,3,4,5,6,9,10,18,19,20,21,22,22a-tetradecahydro-8H-7,10-methanocyclopropa[18,19][1,10,3,6]dioxadiazacyclononadecino[11,12-b]quinoxaline-8-carboxamide]", "Ki": 0.45},
      {"compound": "COc1ccc2nc3c(nc2c1)O[C@H]1CN(C(=O)[C@H](C(C)(C)C)NC(=O)O[C@@H]2C[C@@H]4C[C@@H]4[C@H]2CCCCC3)[C@H](C(=O)N[C@]2(C(=O)NS(=O)(=O)C3(C)CC3)C[C@H]2CC(F)F)[C@@H]1C", "note": "[Example 58, (1aS,2aR,6S,9S,10S,11R,23aR,23bS)-6-tert-butyl-N-[(1R,2S)-2-(2,2-difluoroethyl)-1-{[(1-methylcyclopropyl)sulfonyl]carbamoyl}cyclopropyl]-15-methoxy-10-methyl-4,7-dioxo-1a,2,2a,4,5,6,7,10,11,19,20,21,22,23,23a,23b-hexadecahydro-1H,9H-8,11-methanocyclopropa[4′,5′]cyclopenta[1′,2′:18,19][1,10,3,6]dioxadiazacyclononade cino[11,12-b]quinoxaline-9-carboxamide]", "Ki": 0.17},
      {"compound": "COc1ccc2nc3c(nc2c1)O[C@H]1CN(C(=O)[C@H](C(C)(C)C)NC(=O)O[C@@H]2C[C@H]2CCCCC3)[C@H](C(=O)N[C@]2(C(=O)NS(=O)(=O)C3(C)CC3)C[C@H]2CC(F)F)[C@@H]1C", "note": "[Example 25, (1aR,5S,8S,9S,10R,22aR)-5-tert-butyl-N-[(1R,2S)-2-(2,2-difluoroethyl)-1-{[(1-methylcyclopropyl)sulfonyl]carbamoyl}cyclopropyl]-14-methoxy-9-methyl-3,6-dioxo-1,1a,3,4,5,6,9,10,18,19,20,21,22,22a-tetradecahydro-8H-7,10-methanocyclopropa[18,19][1,10,3,6]dioxadiazacyclononadecino[11,12-b]quinoxaline-8-carboxamide]", "Ki": 0.39}
    ]}
  ]
}
